# Test results reported in ChEMBL document CHEMBL5579824, “Novel Hsp90-Targeting PROTACs: Enhanced synergy with cisplatin in combination therapy of cervical cancer” (Eur J Med Chem, 2024).
# Activity calls are given as the source filed them. No cut-off for these calls is given here.
# Key:
# [1] = tested on: SiHa; assay: Synergistic antiproliferative activity against human SiHa cells assessed as combination index at 0.05 uM incubated for 72 hrs in presence of 0.03 uM cisplatin by CCK-8 assay; format: functional
# [2] = Toxicity in BALB/c nude mouse xenografted with human SiHa cells assessed as body weight weight loss at 2 mg/kg, ip; format: organism-based; settings: in vivo
# [3] = tested on: SiHa; assay: Synergistic antiproliferative activity against human SiHa cells assessed as combination index at 0.75 uM incubated for 72 hrs in presence of 10 uM cisplatin by CCK-8 assay; format: functional
# [4] = tested on: SiHa; assay: Induction of apoptosis in human SiHa cells assessed as late apoptotic cells at 1 uM incubated after 48 hrs by annexin V-FITC/PI staining based flow cytometry (reference value: 6.93 %); format: functional
# [5] = tested on: SiHa; assay: Synergistic antiproliferative activity against human SiHa cells assessed as combination index at 0.75 uM incubated for 72 hrs in presence of 0.01 uM cisplatin by CCK-8 assay; format: functional
# [6] = tested on: SiHa; assay: Synergistic antiproliferative activity against human SiHa cells assessed as combination index at 0.05 uM incubated for 72 hrs in presence of 31.62 uM cisplatin by CCK-8 assay; format: functional
# [7] = tested on: SiHa; assay: Induction of apoptosis in human SiHa cells assessed as necrotic cells at 0.05 uM incubated after 48 hrs by annexin V-FITC/PI staining based flow cytometry (reference value: 0.08 %); format: functional
# [8] = tested on: SiHa; assay: Synergistic antiproliferative activity against human SiHa cells assessed as combination index at 1 uM incubated for 72 hrs in presence of 10 uM cisplatin by CCK-8 assay; format: functional
# [9] = tested on: SiHa; assay: Synergistic antiproliferative activity against human SiHa cells assessed as combination index at 0.75 uM incubated for 72 hrs in presence of 3.16 uM cisplatin by CCK-8 assay; format: functional
# [10] = tested on: SiHa; assay: Antitumor activity against human SiHa cells xenografted in BALB/c nude mouse assessed as reduction in Ki67 protein expression at 2 mg/kg, ip by immunohistochemical analysis; format: functional, organism-based
# [11] = tested on: SiHa; assay: Induction of cell cycle arrest in human SiHa cells assessed as increase in accumulation of cells at G2/M pahse incubated after 48 hrs by PI staining based flow cytometry; format: functional; settings: dose 0.05-10 µM
# [12] = target: T1, Protein cereblon/Heat shock protein HSP 90-alpha/Heat shock protein HSP 90-beta (Homo sapiens) (UniProt P07900+P08238+Q96SW2); assay: Protac activity at CRBN/Hsp90 in human SiHa cells assessed as induction of Hsp90 degradation at 0.05 uM incubated for 2 hrs in presence of MG-132 by Western blot analysis; format: cell-based
# [13] = tested on: SiHa; assay: Induction of cell cycle arrest in human SiHa cells assessed as accumulation of cells at G1 pahse at 2.5 uM incubated after 48 hrs by PI staining based flow cytometry (reference value: 83.90 %); format: functional
# [14] = tested on: SiHa; assay: Synergistic antiproliferative activity against human SiHa cells assessed as combination index at 5 uM incubated for 72 hrs in presence of 1 uM cisplatin by CCK-8 assay; format: functional
# [15] = tested on: SiHa; assay: Synergistic antiproliferative activity against human SiHa cells assessed as combination index at 0.05 uM incubated for 72 hrs in presence of 3.16 uM cisplatin by CCK-8 assay; format: functional
# [16] = tested on: SiHa; assay: Synergistic antiproliferative activity against human SiHa cells assessed as combination index at 0.05 uM incubated for 72 hrs in presence of 10 uM cisplatin by CCK-8 assay; format: functional
# [17] = tested on: SiHa; assay: Synergistic antiproliferative activity against human SiHa cells assessed as combination index at 10 uM incubated for 72 hrs in presence of 10 uM cisplatin by CCK-8 assay; format: functional
# [18] = tested on: SiHa; assay: Induction of apoptosis in human SiHa cells assessed as necrotic cells at 1 uM incubated after 48 hrs by annexin V-FITC/PI staining based flow cytometry (reference value: 0.08 %); format: functional
# [19] = tested on: SiHa; assay: Synergistic antiproliferative activity against human SiHa cells assessed as combination index at 0.05 uM incubated for 72 hrs in presence of 0.32 uM cisplatin by CCK-8 assay; format: functional
# [20] = tested on: SiHa; assay: Induction of apoptosis in human SiHa cells assessed as late apoptotic cells at 10 uM incubated after 48 hrs by annexin V-FITC/PI staining based flow cytometry (reference value: 6.93 %); format: functional
# [21] = tested on: SiHa; assay: Synergistic antiproliferative activity against human SiHa cells assessed as combination index at 0.1 uM incubated for 72 hrs in presence of 3.16 uM cisplatin by CCK-8 assay; format: functional
# [22] = tested on: C-33-A; assay: Antiproliferative activity against human C-33-A cells assessed as reduction in cell viability incubated for 72 hrs by CCK-8 assay; format: functional, cell-based
# [23] = tested on: SiHa; assay: Synergistic antiproliferative activity against human SiHa cells assessed as combination index at 0.1 uM incubated for 72 hrs in presence of 31.62 uM cisplatin by CCK-8 assay; format: functional
# [24] = target: T1, Protein cereblon/Heat shock protein HSP 90-alpha/Heat shock protein HSP 90-beta (Homo sapiens); assay: Protac activity at CRBN/Hsp90 in human SiHa cells assessed as induction of Hsp90 degradation at 0.05 uM incubated for 2 hrs in presence of SNX-5422 by Western blot analysis; format: cell-based
# [25] = target: T1, Protein cereblon/Heat shock protein HSP 90-alpha/Heat shock protein HSP 90-beta (Homo sapiens); assay: Protac activity at CRBN/Hsp90 in human SiHa cells assessed as decrease in HER2 protein expression level at 0.05 uM incubated for 10 hrs by Western blot analysis; format: cell-based
# [26] = tested on: SiHa; assay: Synergistic antiproliferative activity against human SiHa cells assessed as combination index at 5 uM incubated for 72 hrs in presence of 10 uM cisplatin by CCK-8 assay; format: functional
# [27] = tested on: SiHa; assay: Induction of apoptosis in human SiHa cells assessed as necrotic cells at 10 uM incubated after 48 hrs by annexin V-FITC/PI staining based flow cytometry (reference value: 0.08 %); format: functional
# [28] = tested on: SiHa; assay: Synergistic antiproliferative activity against human SiHa cells assessed as combination index at 10 uM incubated for 72 hrs in presence of 3.16 uM cisplatin by CCK-8 assay; format: functional
# [29] = tested on: SiHa; assay: Induction of cell cycle arrest in human SiHa cells assessed as accumulation of cells at S pahse at 0.05 uM incubated after 48 hrs by PI staining based flow cytometry (reference value: 8.51 %); format: functional
# [30] = tested on: SiHa; assay: Synergistic antiproliferative activity against human SiHa cells assessed as combination index at 1 uM incubated for 72 hrs in presence of 0.1 uM cisplatin by CCK-8 assay; format: functional
# [31] = tested on: SiHa; assay: Synergistic antiproliferative activity against human SiHa cells assessed as combination index at 0.1 uM incubated for 72 hrs in presence of 0.32 uM cisplatin by CCK-8 assay; format: functional
# [32] = tested on: SiHa; assay: Induction of apoptosis in human SiHa cells assessed as late apoptotic cells at 2.5 uM incubated after 48 hrs by annexin V-FITC/PI staining based flow cytometry (reference value: 6.93 %); format: functional
# [33] = tested on: SiHa; assay: Antitumor activity against human SiHa cells xenografted in BALB/c nude mouse assessed as tumor growth inhibition at 2 mg/kg, ip; format: functional, organism-based
# [34] = tested on: SiHa; assay: Synergistic antiproliferative activity against human SiHa cells assessed as combination index at 0.1 uM incubated for 72 hrs in presence of 0.1 uM cisplatin by CCK-8 assay; format: functional
# [35] = target: T1, Protein cereblon/Heat shock protein HSP 90-alpha/Heat shock protein HSP 90-beta (Homo sapiens); assay: Protac activity at CRBN/Hsp90 in human Ca-Ski cells assessed as induction of Hsp90 degradation at 0.05 uM incubated for 10 hrs by Western blot analysis; format: cell-based
smiles,measurement,setting,value
CC1(C)CC(=O)c2c(C(F)(F)F)nn(-c3ccc(C(N)=O)c(N[C@H]4CC[C@H](OC(=O)CNC(=O)CCCCCCCNc5cccc6c5CN(C5CCC(=O)NC5=O)C6=O)CC4)c3)c2C1 (stereo not given in full),CI,[1],0.3
same,Activity,[2],Non-Toxic
same,CI,[3],0.21
same,Activity,[4],24.2%
same,CI,[5],0.2
same,CI,[6],0.25
same,Activity,[7],0.1%
same,CI,[8],0.17
same,CI,[9],0.17
same,Activity,[10],Active
same,Activity,[11],Dose-Dependent Effect
same,Activity,[12],inactive
same,Activity,[13],53.29%
same,CI,[14],0.84
same,CI,[15],1.01
same,CI,[16],1.26
same,CI,[17],1.1
same,Activity,[18],0.29%
same,CI,[19],0.38
same,Activity,[20],29.96%
same,CI,[21],1.04
same,IC50,[22],70 nM
same,CI,[23],0.24
same,Activity,[24],inactive
same,Activity,[25],Active
same,CI,[26],0.51
same,Activity,[27],0.27%
same,CI,[28],1.45
same,Activity,[29],10.84%
same,CI,[30],0.21
same,CI,[31],0.45
same,Activity,[32],22.71%
same,TGI,[33],Active
same,CI,[34],0.49
same,Activity,[35],Active
